According to PMC11544713, “The Application of Untargeted Metabolomic Approaches for the Search of Common Bioavailable Metabolites in Human Plasma Samples from Lippia citriodora and Olea europaea Extracts” (Journal of Agricultural and Food Chemistry, 2024):
Counter-ions that a name gives are not always drawn.

Columns and labels:
[1] = Acute intervention: nutrikinetics of plasma metabolites after ingestion of L. citriodora extract (untargeted HPLC-ESI-QTOF-MS)
Procedure: A total of 25 healthy individuals participated, with an average age of 27 ± 9 years and a mean body mass index (BMI) of 23 ± 3 kg/m^2. None of the participants were taking any medications or nutritional supplements nor did they have any chronic diseases or gastrointestinal issues. The sample size was established based on findings from previous bioavailability research.[14] All participants provided informed consent before participating in the study.
The intervention study was carried out at Miguel Hernández University. Following an overnight fast, the volunteers were categorized into the subsequent groups: a subgroup to evaluate the LC leaf extract (n = 8), another for the OE leaf extract (n = 8), and the placebo subgroup (n = 9). This was a double-blind study, in which sample collection and treatment were carried out uniformly across all three subgroups.
Water was provided ad libitum. Prior to the ingestion of the capsule, a nurse inserted a cannula into the ulnar vein of each volunteer’s nondominant arm, and blood samples were drawn into EDTA-coated tubes at baseline (t = 0). Blood samples were then collected at 0.5, 1, 2, 4, 6, 8, and 10 h after the consumption of the 500 mg capsule. Plasma was separated through centrifugation (10 min at 3000 rpm and 4 °C) and stored at −80 °C until further analysis.
Plasma samples were initially treated using a mixture of methanol and ethanol (50:50; v:v) to remove proteins, following previously reported protocols.[19] During the sample treatment, pooled quality controls (pooled-QC) were prepared by combining equal aliquots from each sample. These QC samples were processed by using the same protocols as the experimental biological samples.
A reversed-phase analytical C18 column (Agilent Zorbax Eclipse Plus, 1.8 μm, 4.6 × 150 mm^2) with a protective cartridge with the same packing was used. MS data were acquired in negative ionization mode, operating in full scan across a mass-to-charge ratio (m/z) range of 50–1700. The analytical method used was adapted from that described by Villegas-Aguilar et al.[19]
Metabolite nutrikinetics were studied using PKSolver, an add-in program for pharmacokinetic data analysis in Microsoft Excel. The time to reach the maximum concentration (observed Tmax) was calculated for each significant metabolite. As an untargeted metabolomic approach was used to detect the circulating metabolites, these were not quantified. Therefore, the maximum concentration (Cmax) and area under the curve (AUC) parameters were calculated in a relative way by using the deconvoluted chromatographic areas. […] Statistical differences were determined by unpaired t tests. All p values less than 0.05 were considered statistically significant.

[2] = Acute intervention: nutrikinetics of plasma metabolites after ingestion of O. europaea extract (untargeted HPLC-ESI-QTOF-MS)
How it was run: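 Fasted healthy volunteers (n = 8 per extract, placebo n = 9, double-blind) took one 500 mg capsule. Plasma was drawn at 0–10 h, protein-precipitated with methanol:ethanol and analysed by C18 HPLC-ESI-QTOF-MS in negative full scan (m/z 50–1700). Tmax was observed; Cmax and AUC are relative, from deconvoluted peak areas.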

[3] = 0.5 h after L. citriodora extract
[4] = 1 h after L. citriodora extract
[5] = 2 h after L. citriodora extract
[6] = 4 h after L. citriodora extract
[7] = 6 h after L. citriodora extract
[8] = 8 h after L. citriodora extract
[9] = 10 h after L. citriodora extract
[10] = human plasma, 500 mg capsule of L. citriodora (LC) extract, oral, mean ± SD
[11] = 0.5 h after O. europaea extract
[12] = human plasma, 500 mg capsule of O. europaea (OE) extract, oral, mean ± SD

Compound	mean chromatographic area in plasma, T0.5 [1, 3]	mean chromatographic area in plasma, T1 [1, 4]	mean chromatographic area in plasma, T2 [1, 5]	mean chromatographic area in plasma, T4 [1, 6]	mean chromatographic area in plasma, T6 [1, 7]	mean chromatographic area in plasma, T8 [1, 8]	mean chromatographic area in plasma, T10 [1, 9]	AUC: area under the zero-moment curve [1, 10]	Cmax: relative maximum plasma level [1, 10]	observed Tmax: time required to reach Cmax [1, 10]	mean chromatographic area in plasma, T0.5 [2, 11]	mean chromatographic area in plasma, T1 ([2]; 1 h after O. europaea extract)	mean chromatographic area in plasma, T2 ([2]; 2 h after O. europaea extract)	mean chromatographic area in plasma, T4 ([2]; 4 h after O. europaea extract)	mean chromatographic area in plasma, T6 ([2]; 6 h after O. europaea extract)	mean chromatographic area in plasma, T8 ([2]; 8 h after O. europaea extract)	mean chromatographic area in plasma, T10 ([2]; 10 h after O. europaea extract)	Cmax: relative maximum plasma level [2, 12]	observed Tmax: time required to reach Cmax [2, 12]	AUC: area under the zero-moment curve ([1]; human, in vivo, po, 500 mg)	other results
COc1cc(C=CC(=O)O)ccc1OS(=O)(=O)O [ferulic acid 4-sulfate]	33	131	259	230	222	152	39	1752 ± 1781 relative chromatographic area/h	354 ± 254 relative chromatographic area	3 ± 2 h	0	78	84	22	18	0	0	142 ± 20 relative chromatographic area	1.6 ± 0.5 h		
OCCc1ccc(O)c(O)c1 [hydroxytyrosol]																					AUC of the sulfated form compared to the glucuronidated form ([1]; human, in vivo): about 10 times; detection in plasma samples ([2]; in vivo): detected in plasma samples
homovanillic acid sulfate [homovanillic acid sulfate isomer 2]																				1771 ± 1599 relative chromatographic area/h	Cmax: relative maximum plasma level ([1]; human, in vivo, po, 500 mg): 476 ± 363 relative chromatographic area; observed Tmax: time required to reach Cmax ([1]; human, in vivo, po, 500 mg): 9 ± 2 h; mean chromatographic area in plasma, T0.5 ([1]; in vivo): 0; mean chromatographic area in plasma, T1 ([1]; in vivo): 0; mean chromatographic area in plasma, T2 ([1]; in vivo): 25; mean chromatographic area in plasma, T4 ([1]; in vivo): 112; mean chromatographic area in plasma, T6 ([1]; in vivo): 215; mean chromatographic area in plasma, T8 ([1]; in vivo): 336; mean chromatographic area in plasma, T10 ([1]; in vivo): 408; Cmax: relative maximum plasma level ([2]; human, in vivo, po, 500 mg): 215 ± 68 relative chromatographic area; observed Tmax: time required to reach Cmax ([2]; human, in vivo, po, 500 mg): 4 ± 2 h; mean chromatographic area in plasma, T0.5 ([2]; in vivo): 0; mean chromatographic area in plasma, T1 ([2]; in vivo): 76; mean chromatographic area in plasma, T2 ([2]; in vivo): 161; mean chromatographic area in plasma, T4 ([2]; in vivo): 191; mean chromatographic area in plasma, T6 ([2]; in vivo): 182; mean chromatographic area in plasma, T8 ([2]; in vivo): 154; mean chromatographic area in plasma, T10 ([2]; in vivo): 130
COc1cc(CC(=O)O)ccc1OS(=O)(=O)O [homovanillic acid sulfate isomer 1, homovanillic acid sulfate]																				1391 ± 1144 relative chromatographic area/h	Cmax: relative maximum plasma level ([1]; human, in vivo, po, 500 mg): 341 ± 164 relative chromatographic area; mean chromatographic area in plasma, T0.5 ([1]; in vivo): 0; mean chromatographic area in plasma, T1 ([1]; in vivo): 0; mean chromatographic area in plasma, T2 ([1]; in vivo): 19; mean chromatographic area in plasma, T4 ([1]; in vivo): 147; mean chromatographic area in plasma, T6 ([1]; in vivo): 209; mean chromatographic area in plasma, T8 ([1]; in vivo): 221; mean chromatographic area in plasma, T10 ([1]; in vivo): 207; Cmax: relative maximum plasma level ([2]; human, in vivo, po, 500 mg): 233 ± 69 relative chromatographic area; mean chromatographic area in plasma, T0.5 ([2]; in vivo): 65; mean chromatographic area in plasma, T1 ([2]; in vivo): 212; mean chromatographic area in plasma, T2 ([2]; in vivo): 192; mean chromatographic area in plasma, T4 ([2]; in vivo): 165; mean chromatographic area in plasma, T6 ([2]; in vivo): 119; mean chromatographic area in plasma, T8 ([2]; in vivo): 108; mean chromatographic area in plasma, T10 ([2]; in vivo): 75
hydroxytyrosol glucuronide [hydroxytyrosol glucuronide isomer 2]	0	0	0	48	81	34	23	350 ± 158 relative chromatographic area/h	106 ± 17 relative chromatographic area	8 ± 2 h	1726	2553	1437	507	251	161	75	2627 ± 1167 relative chromatographic area	0.9 ± 0.2 h		observed Tmax: time required to reach Cmax ([1]; human plasma, 500 mg capsule of L. citriodora (LC) extract, oral, mean ± SD, listed as hydroxytyrosol glucuronide): 7 ± 2 h; observed Tmax: time required to reach Cmax ([2]; human plasma, 500 mg capsule of O. europaea (OE) extract, oral, mean ± SD, listed as hydroxytyrosol glucuronide): 1 h
